Patent publication EP4741392A1, “1H-PYRAZOLO[4,3-C]PYRIDINE COMPOUND, AND COMPOSITION THEREOF AND USE THEREOF” (Shenzhen TargetRx Co., Ltd., priority 2023, dated 2025)

What was measured:
Assay in all cases: Kinase activity inhibition assay (HTRF TK Kit), selectivity
Assay type in all cases: biochemical
EGFR = molecular target: T1, EGFR (Homo sapiens, UniProt P00533)
T1 construct: purchased Carna 08-115
Method in brief: (§1)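 IC50 was fitted (four-parameter logistic) from % inhibition computed from the 665/620 nm TR-FRET ratio, with no-kinase wells as blank and DMSO-plus-kinase wells as positive control. Compound, substrate/ATP and enzyme were combined on ice and reacted at room temperature. Biotin-substrate phosphorylation was detected with cryptate antibody/XL665 after 1 h.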

ITK = molecular target: T2, ITK (Homo sapiens, UniProt Q08881)
T2 construct: purchased Carna 08-181
T2 sequence (Q08881 1-620): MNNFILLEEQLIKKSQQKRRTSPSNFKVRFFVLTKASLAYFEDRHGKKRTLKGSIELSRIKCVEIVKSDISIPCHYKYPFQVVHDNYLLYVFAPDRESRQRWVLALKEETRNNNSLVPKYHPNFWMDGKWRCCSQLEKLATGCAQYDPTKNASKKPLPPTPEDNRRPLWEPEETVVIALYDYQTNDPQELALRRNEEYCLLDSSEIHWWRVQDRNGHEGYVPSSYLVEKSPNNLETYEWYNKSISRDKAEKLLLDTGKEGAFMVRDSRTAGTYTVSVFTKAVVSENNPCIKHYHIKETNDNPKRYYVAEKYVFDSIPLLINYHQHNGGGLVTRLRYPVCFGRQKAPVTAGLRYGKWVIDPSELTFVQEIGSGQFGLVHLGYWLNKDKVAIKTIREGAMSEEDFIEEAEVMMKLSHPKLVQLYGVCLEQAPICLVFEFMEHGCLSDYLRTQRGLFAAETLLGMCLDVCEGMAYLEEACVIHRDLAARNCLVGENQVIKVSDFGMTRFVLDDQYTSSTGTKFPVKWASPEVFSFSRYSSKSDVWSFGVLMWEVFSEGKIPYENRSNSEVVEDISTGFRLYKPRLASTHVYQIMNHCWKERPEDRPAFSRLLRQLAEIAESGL
Method in brief: as §1

TEC = molecular target: T3, TEC (Homo sapiens, UniProt P42680)
T3 construct: purchased Carna 08-182
T3 sequence (P42680 1-631): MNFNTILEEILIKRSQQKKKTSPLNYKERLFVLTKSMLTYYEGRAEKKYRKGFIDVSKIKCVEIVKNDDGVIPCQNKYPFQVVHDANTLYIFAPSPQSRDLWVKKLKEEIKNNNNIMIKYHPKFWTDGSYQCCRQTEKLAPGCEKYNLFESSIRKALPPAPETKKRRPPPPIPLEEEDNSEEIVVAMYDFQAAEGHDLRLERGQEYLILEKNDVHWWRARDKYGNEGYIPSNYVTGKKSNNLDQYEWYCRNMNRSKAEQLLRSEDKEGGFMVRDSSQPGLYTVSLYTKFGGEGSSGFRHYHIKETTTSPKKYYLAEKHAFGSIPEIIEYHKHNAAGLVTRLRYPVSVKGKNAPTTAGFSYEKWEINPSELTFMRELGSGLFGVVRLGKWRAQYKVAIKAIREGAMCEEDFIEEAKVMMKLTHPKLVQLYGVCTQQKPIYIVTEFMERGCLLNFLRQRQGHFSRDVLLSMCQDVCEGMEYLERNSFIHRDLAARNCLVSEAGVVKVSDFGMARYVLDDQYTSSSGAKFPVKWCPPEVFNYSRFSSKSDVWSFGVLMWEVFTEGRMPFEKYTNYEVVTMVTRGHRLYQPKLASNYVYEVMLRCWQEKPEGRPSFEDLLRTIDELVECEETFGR
Method in brief: as §1

T1 sequence (P00533 669-1210 limits assumed): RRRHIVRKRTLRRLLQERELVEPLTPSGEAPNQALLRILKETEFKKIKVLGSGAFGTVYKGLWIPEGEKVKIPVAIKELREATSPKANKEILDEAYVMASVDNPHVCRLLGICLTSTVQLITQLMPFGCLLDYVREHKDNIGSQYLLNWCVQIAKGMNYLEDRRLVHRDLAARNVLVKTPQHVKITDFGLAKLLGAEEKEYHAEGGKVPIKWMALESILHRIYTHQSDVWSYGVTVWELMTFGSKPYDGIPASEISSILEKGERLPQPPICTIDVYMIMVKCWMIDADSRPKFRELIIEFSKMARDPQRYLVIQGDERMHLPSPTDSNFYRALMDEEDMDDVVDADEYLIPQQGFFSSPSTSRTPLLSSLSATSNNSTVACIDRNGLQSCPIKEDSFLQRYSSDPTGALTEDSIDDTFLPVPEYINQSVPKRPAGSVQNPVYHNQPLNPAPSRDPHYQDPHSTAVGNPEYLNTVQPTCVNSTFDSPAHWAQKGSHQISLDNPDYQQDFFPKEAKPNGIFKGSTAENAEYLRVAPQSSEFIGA

| SMILES | IC50 (EGFR) [µM] | IC50 (ITK) [µM] | IC50 (TEC) [µM] |
| --- | --- | --- | --- |
| COc1ccc(F)cc1C(=O)NCc1ccc(-c2ncc(-c3ccc(P(C)(C)=O)cn3)c3[nH]nc(N)c23)cc1 [Example 56, N-(4-(3-amino-7-(5-(dimethylphosphoryl)pyridin-2-yl)-1H-pyrazolo[4,3-c]pyridin-4-yl)benzyl)-5-fluoro-2-methoxybenzamide] | 0.05 to 0.5 | 0.05 to 0.5 | 0.005 to 0.05 |
| COc1ccc(F)cc1C(=O)NCc1ccc(-c2ncc(-c3nc4cnccn4n3)c3[nH]nc(N)c23)cc1 [Example 57, N-(4-(7-([1,2,4]triazolo[1,5-a]pyrazin-2-yl)-3-amino-1H-pyrazolo[4,3-c]pyridin-4-yl)benzyl)-5-fluoro-2-methoxybenzamide] | 0.05 to 0.5 | > 0.5 | 0.05 to 0.5 |
| COc1ccc(F)cc1C(=O)NCc1ccc(-c2ncc(-c3nc4ccccn4n3)c3[nH]nc(N)c23)cc1 [Example 58, N-(4-(7-([1,2,4]triazolo[1,5-a]pyridin-2-yl)-3-amino-1H-pyrazolo[4,3-c]pyridin-4-yl)benzyl)-5-fluoro-2-methoxybenzamide] | 0.05 to 0.5 | > 0.5 | 0.005 to 0.05 |
| COc1ccc(F)cc1C(=O)NCc1ccc(-c2ncc(-c3cnn4cccnc34)c3[nH]nc(N)c23)cc1 [Example 70, N-(4-(3-amino-7-(pyrazolo[1,5-a]pyrimidin-3-yl)-1H-pyrazolo[4,3-c]pyridin-4-yl)benzyl)-5-fluoro-2-methoxybenzamide] | 0.05 to 0.5 | > 0.5 | 0.005 to 0.05 |
| COc1ccc(F)cc1C(=O)NCc1ccc(-c2ncc(-c3ccc(N4CCN(C)CC4)cn3)c3[nH]nc(N)c23)cc1 [Example 73, N-(4-(3-amino-7-(5-(4-methylpiperazin-1-yl)pyridin-2-yl)-1H-pyrazolo[4,3-c]pyridin-4-yl)benzyl)-5-fluoro-2-methoxybenzamide] | 0.005 to 0.05 | 0.05 to 0.5 | 0.005 to 0.05 |
| COc1ccc(F)cc1C(=O)NCc1ccc(-c2ncc(-c3ccc(N4CCN(C)C[C@@H]4C)cn3)c3[nH]nc(N)c23)cc1 [Example 74, (S)-N-(-4-(3-amino-7-(5-(2,4-dimethylpiperazin-1-yl)pyridin-2-yl) 1H-pyrazolo[4,3-c]pyridin-4-yl)benzyl)-5-fluoro-2-methoxybenzamide] | 0.005 to 0.05 | 0.05 to 0.5 | > 0.5 |
| COc1ccc(F)cc1C(=O)NCc1ccc(-c2ncc(-c3ccc(N4CCN(C)C[C@H]4C)cn3)c3[nH]nc(N)c23)cc1 [Example 75, (R)-N-(-4-(3-amino-7-(5-(2,4-dimethylpiperazin-1-yl)pyridin-2-yl) 1H-pyrazolo[4,3-c]pyridin-4-yl)benzyl)-5-fluoro-2-methoxybenzamide] | 0.005 to 0.05 | 0.005 to 0.05 | 0.005 to 0.05 |
| COc1ccc(F)cc1C(=O)NCc1ccc(-c2ncc(-c3ccc(N4CCOCC4)cn3)c3[nH]nc(N)c23)cc1 [Example 76, N-(4-(3-amino-7-(5-morpholinopyridin-2-yl)-1H-pyrazolo[4,3-c]pyridin-4-yl)benzyl)-5-fluoro-2-methoxybenzamide] | 0.005 to 0.05 | 0.05 to 0.5 | 0.001 to 0.005 |
| COc1ccc(F)cc1C(=O)NCc1ccc(-c2ncc(-c3nccn4cccc34)c3[nH]nc(N)c23)cc1 [Example 77, N-(4-(3-amino-7-(pyrrolo[1,2-a]pyrazin-1-yl)-1H-pyrazolo[4,3-c]pyridin-4-yl)benzyl)-5-fluoro-2-methoxybenzamide] | 0.05 to 0.5 | > 0.5 | 0.005 to 0.05 |

Next, values leading:

| IC50 (EGFR) [µM] | IC50 (ITK) [µM] | IC50 (TEC) [µM] | SMILES |
| --- | --- | --- | --- |
| 0.005 to 0.05 | 0.05 to 0.5 | 0.005 to 0.05 | COCCOc1ccc(-c2cnc(-c3ccc(CNC(=O)c4cc(F)ccc4OC)cc3)c3c(N)n[nH]c23)nc1 [Example 59, N-(4-(3-amino-7-(5-(2-methoxyethoxy)pyridin-2-yl)-1H-pyrazolo[4,3-c]pyridin-4-yl)benzyl)-5-fluoro-2-methoxybenzamide] |
| 0.005 to 0.05 | 0.05 to 0.5 | 0.005 to 0.05 | COc1ccc(F)cc1C(=O)NCc1ccc(-c2ncc(-c3ccc(OCCN(C)C)cn3)c3[nH]nc(N)c23)cc1 [Example 60, N-(4-(3-amino-7-(5-(2-(dimethylamino)ethoxy)pyridin-2-yl)-1H-pyrazolo[4,3-c]pyridin-4-yl)benzyl)-5-fluoro-2-methoxybenzamide] |
| 0.005 to 0.05 | 0.05 to 0.5 | 0.005 to 0.05 | COc1ccc(F)cc1C(=O)NCc1ccc(-c2ncc(-c3ccc(OCCN4CCOCC4)cn3)c3[nH]nc(N)c23)cc1 [Example 61, N-(4-(3-amino-7-(5-(2-morpholinoethoxy)pyridin-2-yl)-1H-pyrazolo[4,3-c]pyridin-4-yl)benzyl)-5-fluoro-2-methoxybenzamide] |
| 0.005 to 0.05 | 0.05 to 0.5 | 0.05 to 0.5 | COc1ccc(F)cc1C(=O)NCc1ccc(-c2ncc(-c3ccc(OCCN4CCCC4)cn3)c3[nH]nc(N)c23)cc1 [Example 62, N-(4-(3-amino-7-(5-(2-(pyrrolidin-1-yl)ethoxy)pyridin-2-yl)-1H-pyrazolo[4,3-c]pyridin-4-yl)benzyl)-5-fluoro-2-methoxybenzamide] |
| 0.005 to 0.05 | 0.05 to 0.5 | 0.001 to 0.005 | COc1ccc(F)cc1C(=O)NCc1ccc(-c2ncc(-c3ccc(C(C)(C)O)cn3)c3[nH]nc(N)c23)cc1 [Example 65, N-(4-(3-amino-7-(5-(2-hydroxypropan-2-yl)pyridin-2-yl)-1H-pyrazolo[4,3-c]pyridin-4-yl)benzyl)-5-fluoro-2-methoxybenzamide] |
| 0.005 to 0.05 | 0.05 to 0.5 | 0.005 to 0.05 | COc1ccc(F)cc1C(=O)NCc1ccc(-c2ncc(-c3ccc(CN4CCCCC4)cn3)c3[nH]nc(N)c23)cc1 [Example 66, N-(4-(3-amino-7-(5-(piperidin-1-ylmethyl)pyridin-2-yl)-1H-pyrazolo[4,3-c]pyridin-4-yl)benzyl)-5-fluoro-2-methoxybenzamide] |
| 0.005 to 0.05 | 0.05 to 0.5 | 0.005 to 0.05 | COc1ccc(F)cc1C(=O)NCc1ccc(-c2ncc(-c3ccc(CN4CCOCC4)cn3)c3[nH]nc(N)c23)cc1 [Example 67, N-(4-(3-amino-7-(5-(morpholinomethyl)pyridin-2-yl)-1H-pyrazolo[4,3-c]pyridin-4-yl)benzyl)-5-fluoro-2-methoxybenzamide] |
| 0.005 to 0.05 | 0.05 to 0.5 | 0.005 to 0.05 | COc1ccc(F)cc1C(=O)NCc1ccc(-c2ncc(-c3ccc(CN4CCN(C)CC4)cn3)c3[nH]nc(N)c23)cc1 [Example 68, N-(4-(3-amino-7-(5-((4-methylpiperazin-1-yl)methyl)pyridin-2-yl)-1H-pyrazolo[4,3-c]pyridin-4-yl)benzyl)-5-fluoro-2-methoxybenzamide] |
| 0.005 to 0.05 | 0.05 to 0.5 | 0.001 to 0.005 | COc1ccc(F)cc1C(=O)NCc1ccc(-c2ncc(-c3cc4ccccn4n3)c3[nH]nc(N)c23)cc1 [Example 69, N-(4-(3-amino-7-(pyrazolo[1,5-a]pyridin-2-yl)-1H-pyrazolo[4,3-c]pyridin-4-yl)benzyl)-5-fluoro-2-methoxybenzamide] |
| 0.005 to 0.05 | 0.05 to 0.5 | 0.005 to 0.05 | COc1ccc(F)cc1C(=O)NCc1ccc(-c2ncc(-c3cc4n(n3)CCN(C)C4)c3[nH]nc(N)c23)cc1 [Example 71, N-(4-(3-amino-7-(5-methyl-4,5,6,7-tetrahydropyrazolo[1,5-a]pyrazin-2-yl)-1H-pyrazolo[4,3-c]pyridin-4-yl)benzyl)-5-fluoro-2-methoxybenzamide] |
| 0.005 to 0.05 | 0.05 to 0.5 | 0.005 to 0.05 | CCN1CCn2nc(-c3cnc(-c4ccc(CNC(=O)c5cc(F)ccc5OC)cc4)c4c(N)n[nH]c34)cc2C1 [Example 72, N-(4-(3-amino-7-(5-ethyl-4,5,6,7-tetrahydropyrazolo[1,5-a]pyrazin-2-yl)-1H-pyrazolo[4,3-c]pyridin-4-yl)benzyl)-5-fluoro-2-methoxybenzamide] |
